20 compounds from US12279617B2, “Agricultural and horticultural chemical agent containing new imidazopyridine-2-carboxamide derivative as active ingredient” (AGRO-KANESHO CO., LTD., priority 2019, dated 2025) can be followed below.

Each structure is given as a SMILES string.

Holding throughout (format): in vivo
In one assay the test system is Plutella xylostella. In words: Insecticidal effect test for Plutella xylostella of Chinese cabbage. As to conditions: 500 ppm emulsion agent sprayed on Chinese cabbage seedlings; 3rd instar larvae; 5 days after insect release; 25° C.; agony insects counted as dead. The method, then:
A sufficient amount of a water diluted solution of an emulsion agent (500 ppm) prepared as in Formulation Example 1 was sprayed with an air brush to the leaves of Chinese cabbage seedlings planted in pots raised for 2 weeks after sowing. The liquid agent was air dried, and five 3rd instar larvae of Plutella xylostella were then inoculated per pot and were kept in a thermostat chamber of 25° C. Five days after the insect release, the life-and-death and the agony of the larvae were investigated, and the insecticidal rate (%) when agony insects were included in dead insects was determined. Incidentally, the test was carried out by using one seedling in each ward. Insecticidal rate (%)=[number of dead larvae)/(number of test larvae)]×100

The test system of assay [1] is Spodoptera litura (Fabricius). Description: Larvicide test for Spodoptera litura (Fabricius). As to conditions: 500 ppm emulsion agent; artificial feed immersed about 60 seconds; 7 days after insect release; 25° C.; agony insects counted as dead. An excerpt:
A water diluted solution of an emulsion agent (500 ppm) prepared as in Formulation Example 1 was put in a 120-mL polyethylene cup, and artificial feed Insecta LF (Nosan Corporation, diameter: 5 cm) sliced into 5 mm thickness and cut into ¼ was immersed in the polyethylene cup for about 60 seconds. After the immersion treatment, the resultant artificial feed piece was put in another 120-mL polyethylene cup (diameter: 8 cm, height: 4 cm) with filter paper (diameter: 55 mm) on the bottom together with test insects, and the cup was covered with a lid and was then kept in a thermostat chamber of 25° C. Seven days after the insect release, the life-and-death and the agony of the larvae were investigated, and the insecticidal rate (%) when agony insects were included in dead insects was determined. Incidentally, the test was carried out by using one cup in each ward. Insecticidal rate (%)=[number of dead larvae)/(number of test larvae)]×100

Assay [2] concerns Aculops lycopersici Massee. In words: Adult-killing test for Aculops lycopersici Massee (tomato rust mites). As to conditions: 500 ppm emulsion agent sprayed 2.0 mL per cup on tomato leaf disks; 3 days after treatment; 25° C.; scored on four scales (100, 80, 50, 0). An excerpt:
A lid provided with a hole (diameter: about 5 mm) at the center was put on a 430-mL polyethylene cup containing water. Circular filter paper with a diameter of 6.5 cm which was cut such that a strip-shaped filter paper piece having a width of about 5 mm was formed was put on the lid, and the filter paper piece was inserted into the hole of the lid so that the tip of the piece extends downward from the hole and immersed in the water in the cup. Furthermore, absorbent cotton was put on the filter paper such that the water in the cup was always supplied to the absorbent cotton. Three leaf disks (1 cm×1 cm) of leaflets of tomato in the early stage of true leaf development were put on the absorbent cotton such that the back of the leaves in the disk form was on top, and small pieces of a leaf parasitized by tomato rust mites were inoculated on the leaves in the disk form. After 24 hours from the inoculation, the small pieces were removed, and the cup was placed in an acrylic cylinder having a height of 50 cm and a diameter of 10 cm. A water diluted solution of an emulsion agent (500 ppm) prepared as in Formulation Example 1 was sprayed in an amount of 2.0 mL per cup using an air brush. After the spraying, the cup was kept in a thermostat chamber of 25° C. Three days after the treatment, the control rate was evaluated on four scales: 100 (control rate: 100%), 80 (control rate: 99% to 80%), 50 (control rate: 79% to 50%), and 0 (control rate: less than 50%), and the next-generation density suppression rate was calculated based on the results by the following equation. Incidentally, the test was carried out by using one cup in each ward. Control rate=(A×100+B×80+C×50)/(A+B+C+D) A: the number of disks for 100, B: the number for disks of 80, C: the number for disks of 50, D: the number of disks for 0.

As to `CCS(=O)(=O)c1c(C(=O)N(C)c2ccc(C(F)(F)F)cc2)nc2ccc(C(F)(F)F)cn12` [Compound A, reference compound], the insecticidal rate (with Plutella xylostella; in assay [1]) was 90% in each case. This compound displayed a control rate in assay [2] of 100%.

For `CCS(=O)(=O)c1c(C(=O)N(COC)c2ccc(C(F)(F)F)cc2)nc2ccc(C(F)(F)F)cn12` [A-15, N-(methoxymethyl)-N-{4-(trifluoromethyl)phenyl}-3-(ethylsulfonyl)-6-(trifluoromethyl)imidazo[1,2-a]pyridine-2-carboxamide], the insecticidal rate (in the assay on Plutella xylostella; in assay [1]) was 100% throughout. The compound further displayed a control rate in assay [2] of 100%.

In the case of `CCS(=O)(=O)c1c(C(=O)N(CS(C)(=O)=O)c2ccc(C(F)(F)F)cc2)nc2ccc(C(F)(F)F)cn12` [A-102], the insecticidal rate (in the assay on Plutella xylostella; in assay [1]) was 100% throughout. The compound also came in with a control rate in assay [2] of 100%.

As for `CCOCN(C(=O)c1nc2cccc(C(F)(F)F)n2c1S(=O)(=O)CC)c1ccc(C(F)(F)F)cc1` [A-18], the insecticidal rate (in the assay with Plutella xylostella; in assay [1]) was 100% throughout.

Turning to `CCOCN(C(=O)c1nc2ccc(Cl)cn2c1SCC)c1ccc(C(F)(F)F)cc1` [A-25], the insecticidal rate (with Plutella xylostella; in assay [1]) was 100% in each case. The compound further gave a control rate in assay [2] of 100%.

In the case of `CCS(=O)(=O)c1c(C(=O)N(CSC)c2ccc(C(F)(F)F)cc2)nc2ccc(C(F)(F)F)cn12` [A-99], the insecticidal rate (in the assay with Plutella xylostella; in assay [1]) was 100% in each case.

Regarding `CCOCN(C(=O)Cc1ccncc1S(=O)(=O)CC)c1ccc(C(F)(F)F)cc1` [Compound B, reference compound], the insecticidal rate with Plutella xylostella is recorded as 50%; in assay [1], 0%. In addition, the control rate in assay [2] is given as 100%.

`CCSc1c(C(=O)N(COC)c2ccc(C(F)(F)F)cc2)nc2ccc(C(F)(F)F)cn12` [A-13, N-(methoxymethyl)-N-{4-(trifluoromethyl)phenyl}-3-(ethylthio)-6-(trifluoromethyl)imidazo[1,2-a]pyridine-2-carboxamide]: the insecticidal rate (in the assay with Plutella xylostella; in assay [1]) was 100% each time.

For the compound `CCOCN(C(=O)c1nc2ccc(C(F)(F)F)cn2c1SCC)c1ccc(C(F)(F)F)nc1` [A-91], the insecticidal rate (in the assay with Plutella xylostella; in assay [1]) was 100% in each case.

As for `CCOCN(C(=O)c1nc2c(C(F)(F)F)cccn2c1SCC)c1ccc(C(F)(F)F)cc1` [A-22], the insecticidal rate (with Plutella xylostella; in assay [1]) was 100% throughout.

As for `CCOCN(C(=O)c1nc2ccc(C(F)(F)F)cn2c1SCC)c1ccccc1C(F)(F)F` [A-31], the insecticidal rate with Plutella xylostella turned out to be 100%.

As to `CCOCN(C(=O)c1nc2ccc(C(F)(F)F)cn2c1SCC)c1ccc(SC(F)(F)F)cc1` [A-70], the insecticidal rate (in the assay on Plutella xylostella; in assay [1]) was 100% throughout. The compound also gave a control rate in assay [2] of 100%.

Consider `CCOCN(C(=O)c1nc2ccc(C(F)(F)F)cn2c1S(=O)(=O)CC)c1ccc(SC(F)(F)F)cc1` [A-72], for which the insecticidal rate (in the assay with Plutella xylostella; in assay [1]) was 100% throughout. In assay [2], this compound registered a control rate of 100%.

For the compound `CCOCN(C(=O)c1nc2cc(C(F)(F)F)ccn2c1[S+]([O-])CC)c1ccc(C(F)(F)F)cc1` (stereo not drawn) [A-20], the insecticidal rate (in the assay on Plutella xylostella; in assay [1]) was 100% each time.

In the case of `CCOCN(C(=O)c1nc2cc(C(F)(F)F)ccn2c1S(=O)(=O)CC)c1ccc(C(F)(F)F)cc1` [A-21], the insecticidal rate (with Plutella xylostella; in assay [1]) was 100% in each case.

On to `CC[S+]([O-])c1c(C(=O)N(COC)c2ccc(C(F)(F)F)cc2)nc2ccc(C(F)(F)F)cn12` (stereo not drawn) [A-14, N-(methoxymethyl)-N-{4-(trifluoromethyl)phenyl}-3-(ethylsulfinyl)-6-(trifluoromethyl)imidazo[1,2-a]pyridine-2-carboxamide], for which the insecticidal rate (in the assay with Plutella xylostella; in assay [1]) was 100% in each case. The compound also had a control rate in assay [2] of 100%.

With `CCOCN(C(=O)c1nc2ccc(Cl)cn2c1S(=O)(=O)CC)c1ccc(C(F)(F)F)cc1` [A-27], the insecticidal rate (in the assay with Plutella xylostella; in assay [1]) was 100% throughout. Besides, the control rate in assay [2] was determined as 100%.

For the compound `CCOCN(C(=O)c1nc2ccc(C(F)(F)F)cn2c1S(=O)(=O)CC)c1ccc(C(F)(F)F)cn1` [A-96], the insecticidal rate (in the assay with Plutella xylostella; in assay [1]) was 100% each time. The compound further displayed a control rate in assay [2] of 100%.

Regarding `CCOCN(C(=O)c1nc2ccc(C(F)(F)F)cn2c1S(=O)(=O)CC)c1ccc([S+]([O-])C(F)(F)F)cc1` (stereo not drawn) [A-75], the insecticidal rate (in the assay with Plutella xylostella; in assay [1]) was 100% throughout. Also, the control rate in assay [2] was 100%.

Take `CCOCN(C(=O)c1nc2ccc(C(F)(F)F)cn2c1S(=O)(=O)CC)c1ccccc1C(F)(F)F` [A-33]: the insecticidal rate (in the assay on Plutella xylostella; in assay [1]) was 100% in each case. For the same compound, the control rate in assay [2] is on record as 100%.
